Publication PMC9781199, “Rational-Based Discovery of Novel β-Carboline Derivatives as Potential Antimalarials: From In Silico Identification of Novel Targets to Inhibition of Experimental Cerebral Malaria” (Pathogens, 2022)
Values joined by “and” are separate entries in the source; they are usually repeats but may differ in a detail not shown here. Identical values can stand only once. Like-named read-outs stand apart in the source and are kept apart here.

Tests used:
[1] = system: Plasmodium falciparum W2 strain (CQ-resistant); test: In vitro antiplasmodial activity, SYBR test; assay type: cell-based; settings: for IC50: Plasmodium falciparum; for SI (selectivity index): ratio between cytotoxic (WI-26-VA4) and antiplasmodial (W2) activities
Experimental: Continuous culture was maintained as previously described. In vitro antiplasmodial activity of the seven compounds against the P. falciparum culture was evaluated using the SYBR test as previously described. Compounds were diluted to concentrations ranging from 10 to 0.0001 μM. […] The plate was read in a fluorometer (Fluoroskan Ascent, Thermo Laboratories) with excitation at 485 nm and an emission of […]. All experiments were performed in triplicate. The results were expressed as the mean of minimum lethal dose for 50% of the culture (IC50).
Selectivity index (SI) is the ratio between the cytotoxic and antiplasmodial activities of each compound tested. The values greater than 10 were considered indicative of lack of cytoxicity, whereas the substances with values below 10 were considered toxic.

[2] = system: human pulmonary fibroblast cells WI-26VA4; test: In vitro cytotoxicity on mammalian cells, MTT assay; assay type: cell-based; settings: read-out: WI-26-VA4 IC50 ± SD
Experimental: In vitro cytotoxicity of the compounds was assessed against human pulmonary fibroblast cells WI-26VA4 (ATCC CCL-95.1, USA), by 3-(4,5-dimethyl-2-thiazolyl)-2, 5-diphenyl-2H-tetrazolium bromide (MTT assay). Cells were cultured in a RPMI-1640 medium supplemented with 10% heat-inactivated fetal bovine serum in a 96-well plate. Compounds were diluted in different concentrations ranging from 100 to 1 μM and incubated with the cells for 48 h in a 5% CO2 atmosphere at 37 °C. The optical density was determined at 540 nm […] (Spectra Max340PC384, Molecular Devices, Sunnyvale, CA, USA). The minimum lethal dose for 50% of the cells (IC50) was determined as previously described.

[3] = system: Plasmodium berghei ANKA; test: Curative test in the mouse model of experimental cerebral malaria; assay type: in vivo, C57BL/6 mice infected with P. berghei ANKA; settings: for % Reduction of parasitemia, 7th dpi / Parasitemia ± SD, 7th dpi / % Reduction of parasitemia, 5th dpi / Parasitemia ± SD, 5th dpi: 10 mg/Kg oral, day 3 to 7 p.i.; for Prevention of the development of CM (share of animals): 10 mg/kg oral
[4] = system: Plasmodium berghei ANKA; test: Suppressive modified test in the mouse model of experimental cerebral malaria; assay type: in vivo, C57BL/6 mice infected with P. berghei ANKA; settings: suppressive test, 10 mg/Kg oral for five days from 4 h after infection
Experimental: The animals (n = 5/cage) were housed in ALESCO® climate-controlled cabinets with controlled air flow, a temperature of 22 ± 2 °C and light control, respecting the animals’ circadian rhythm (light/dark cycle of 12 h), with standard rodent food and water ad libitum.
To carry out the proposed experiments, the murine model of ECM was used to assess the antimalarial activity of the compounds. Plasmodium berghei ANKA was kindly provided by Claudio Romero Marinho (Federal University of São Paulo-Brazil), and was used to conduct the infections which were performed by intraperitoneal (i.p.) injection of 10^5 parasitized red blood cells (pRBCs) obtained from infected donor mice, as previously described. Reduced responsiveness to external stimuli, ataxia, paralysis, coma, and/or convulsions were considered clinical signals of ECM [44].
In the suppressive modified test, mice were treated daily by oral gavage for five consecutive days, starting four hours after infection.
Parasitemia was monitored using giemsa-stained blood smears and the inhibition of parasite multiplication (IPM) was calculated by the formula: [(A–B)/A] × 100, where A = parasitemia of the PbA, and B = parasitemia of the group treated with the compounds. The clinical symptoms were evaluated using the rapid murine coma and behavior scale (RMCBS) from day 5 p.i. being maintained until the end of experimentation. The RMCBS consists of 10 parameters (gait, balance, motor performance, body position, limb strength, touch escape, pinna reflex, toe pinch, aggression, and grooming). Each parameter is scored 0 to 2, with 0 being the lowest function and 2 being the highest. Animals with clinical score ≤ 5 were euthanized. The survival rate (SR) was calculated based on the number of alive animals after 14 days of clinical evaluation. […]

[5] = system: peritoneal macrophages of BALB/c mice; test: Cytotoxicity on peritoneal macrophages, MTT method; assay type: cell-based; settings: 18 to 150 μM, 48 h
Experimental: Macrophages obtained from the peritoneal cavity of BALB/c mice previously inoculated with 3% thioglycollate medium for the evaluation of cell viability were used. The macrophages were seeded in culture bottles with a RPMI-1640 medium supplemented with 2 mM L-glutamine, 100 µg/mL antibiotics (streptomycin and penicillin), 5% fetal bovine serum (FBS) and kept in an incubator at 5% CO2 atmosphere at 37 °C until the day of the test. The protocol was approved by the Ethical Committee for Animal Research of Federal University of Juiz de Fora (n° 007/2018-CEUA).
Cytotoxicity was assessed by cell viability using the MTT method. Briefly, the macrophages at 2 × 10^6 cells/well were transferred to 96-well microplates and treated with compound 10 at concentrations of 18 to 150 μM. For the negative control, cells were treated only with 0.06% DMSO (vehicle). The cells were incubated for 48 h at 37 °C and 5% CO2 atmosphere. Absorbance was read at 570 nm and cell viability (%) of macrophages was obtained by the following formula: % viable cells = [(AUSample)/AU0.06% DMSO] × 100, where: AUSample: Absorbance was measured after treatment of cells with the sample; AU0.06% DMSO: Absorbance was measured after treatment of cells with 0.06% DMSO. The experiment was performed in triplicate.

[6] = system: NO production in murine peritoneal macrophages; test: NO production by LPS/IFN-γ stimulated macrophages, Griess method; assay type: cell-based, BALB/c mice; settings: macrophages stimulated with LPS and IFN-γ, 18 to 150 μM, 48 h, p < 0.05
Experimental: NO production was determined in the culture supernatants of macrophages after being incubated for 48 h in the presence of compound 10 ([…]) and stimulated with LPS at 1 μg/mL and IFN-γ at 1 ng/mL. Negative control was stimulated with LPS and IFN-γ and treated with 0.06% DMSO (vehicle). The cells were incubated for 48 h at 37 °C and 5% CO2 atmosphere. Subsequently, NO production was evaluated by the Griess method (an indirect NO measurement by nitrite dosing) in the recovered culture supernatant from the 48 h stimuli and treatment as described by. The quantity of NO (μM) was determined by comparison with a standard sodium nitrite solution. The spectrophotometric measurement was performed at 540 nm and the experiment was performed in triplicate.

[7] = W2 strain (chloroquine-resistant), SYBR test, triplicate, read-out: P. falciparum IC50 ± SD
[8] = WI26VA4, human fibroblasts, MTT, 48 h, highest concentration 100 μM

| Compound | IC50 ([1]; W2, read-out: P. falciparum IC50 ± SD) [nM] | IC50 ([2]; Homo sapiens, WI26VA4, 48 h) [nM] | % Reduction of parasitemia, 7th dpi [3] [%] | Parasitemia ± SD, 7th dpi [3] | % Reduction of parasitemia, 5th dpi [4] [%] | Parasitemia ± SD, 5th dpi [4] | % Reduction of parasitemia, 7th dpi [4] [%] | Parasitemia ± SD, 7th dpi [4] | IC50 [1, 7] [nM] | SI (selectivity index) [1] | IC50 [2, 8] [nM] | % Reduction of parasitemia, 5th dpi [3] [%] | Parasitemia ± SD, 5th dpi [3] | Prevention of the development of CM (share of animals) [3] | % Reduction of parasitemia, 5th dpi ([3]; 10 mg/kg) | % Reduction of parasitemia, 5th dpi ([4]; 10 mg/kg) | Toxicity for peritoneal macrophages (cell viability, MTT) [5] | NO levels (nitrite equivalent) [6] |
| --- | --- | --- | --- | --- | --- | --- | --- | --- | --- | --- | --- | --- | --- | --- | --- | --- | --- | --- |
| CCN(CC)CCCC(C)Nc1ccnc2cc(Cl)ccc12 (stereo not shown) [CQ, chloroquine, reference compound] | 590 ± 15 | > 100000 | 96.1 | 0.21 ± 0.27 | 96.5 | 0.24 ± 0.05 | 96.1 | 0.21 ± 0.27 | – | – | – | – | – | – | – | – | – | – |
| COC(=O)[C@@H]1Cc2c([nH]c3ccccc23)[C@@H](c2ccccc2Cl)N1 [Compound 6, Methyl (1R,3S)-1-(2-Chloro)-2,3,4,9-tetrahydro-1H-pyrido[3,4-b]indole-3-carboxylate] | – | – | – | – | – | – | – | – | 670 ± 19 | >149 | > 100000 | 64.36 | 1.13 ± 0.48 | No protective effect | – | – | – | – |
| COc1cc(-c2nccc3c2[nH]c2ccccc23)cc(OC)c1OC [Compound 10, 1-(3,4,5-Trimethoxyphenyl)-9H-pyrido[3,4-b]indole] | – | – | 0 | 8.37 ± 2.26 | – | 0.57 ± 0.94 | 45.69 | 3.72 ± 3.93 | 510 ± 11 | >196 | > 100000 | – | 1.02 ± 0.93 | 70% | 67.9% and 67.92% | 82% and 82.07% | no toxicity | reduce NO levels at all concentrations tested |
| COc1cc(C2NCCc3c2[nH]c2ccccc32)cc(OC)c1OC (stereo not shown) [Compound 9, 1-(3,4,5-Trimethoxyphenyl)-2,3,4,9-tetrahydro-1H-pyrido[3,4-b]indole] | – | – | – | – | – | – | – | – | 1120 ± 14 | >89 | > 100000 | – | – | – | – | – | – | – |
| CCN(CC)c1ccc(C2NCCc3c2[nH]c2ccccc32)c(O)c1 (stereo not shown) [Compound 8, 5-(Diethylamino)-2-(2,3,4,9-tetrahydro-1H-pyrido[3,4-b]indol-1-yl)phenol] | – | – | – | – | – | – | – | – | 1820 ± 11 | >55 | > 100000 | – | – | – | – | – | – | – |
